Biological target: T1, Androgen Receptor (Homo sapiens, UniProt P10275)
T1 construct: endogenous in cells; host or cells: VCaP cells
T1 sequence (P10275 1-920): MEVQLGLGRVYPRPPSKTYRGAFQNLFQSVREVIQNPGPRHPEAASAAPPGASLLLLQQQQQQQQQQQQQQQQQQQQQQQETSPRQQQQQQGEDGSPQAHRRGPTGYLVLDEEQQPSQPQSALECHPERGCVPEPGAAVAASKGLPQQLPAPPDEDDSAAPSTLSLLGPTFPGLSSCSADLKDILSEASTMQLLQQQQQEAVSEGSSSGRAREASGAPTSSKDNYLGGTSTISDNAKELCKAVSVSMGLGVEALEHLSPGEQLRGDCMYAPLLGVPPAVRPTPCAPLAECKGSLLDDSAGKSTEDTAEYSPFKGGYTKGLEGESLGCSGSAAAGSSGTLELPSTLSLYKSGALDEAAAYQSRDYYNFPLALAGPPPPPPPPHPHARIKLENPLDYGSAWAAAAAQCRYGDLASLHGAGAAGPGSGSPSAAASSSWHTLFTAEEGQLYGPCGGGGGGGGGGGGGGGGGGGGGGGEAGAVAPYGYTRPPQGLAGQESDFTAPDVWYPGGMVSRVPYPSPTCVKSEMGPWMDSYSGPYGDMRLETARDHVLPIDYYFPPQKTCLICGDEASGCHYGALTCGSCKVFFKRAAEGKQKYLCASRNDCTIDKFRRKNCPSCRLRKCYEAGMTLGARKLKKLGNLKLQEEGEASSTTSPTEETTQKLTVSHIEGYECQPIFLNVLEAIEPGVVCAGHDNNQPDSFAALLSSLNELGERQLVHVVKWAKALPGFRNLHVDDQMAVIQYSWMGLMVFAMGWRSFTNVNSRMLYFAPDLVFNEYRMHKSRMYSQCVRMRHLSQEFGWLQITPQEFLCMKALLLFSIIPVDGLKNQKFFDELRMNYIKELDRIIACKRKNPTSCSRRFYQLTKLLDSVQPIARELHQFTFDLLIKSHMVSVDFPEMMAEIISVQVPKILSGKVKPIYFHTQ
Assay: Androgen Receptor ELISA assay (PathScan AR ELISA) in VCaP cells: AR degradation, Dmax and DC50
Format: cell-based
Settings: for Dmax: VCaP, read-out: VCaP Dmax (%); for DC50: read-out: VCaP DC50, concentration that caused 50% Androgen Receptor degradation, VCaP cells (Table 32)
How it was run: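 After 24 h exposure of VCaP cells (charcoal-stripped serum, 0.1 nM R1881 agonist, 0.1% DMSO) to seven half-log compound concentrations, residual AR in lysates was measured by PathScan ELISA (TMB absorbance, 450 nm). Cells were plated at 30,000/well and grown at least 3 days beforehand.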

Cc1ncsc1-c1ccc(CNC(=O)[C@@H]2C[C@@H](O)CN2C(=O)[C@@H](NC(=O)COCCCOCc2ccc(-c3ccc(N4C(=S)N(c5ccc(C#N)c(C(F)(F)F)c5)C(=O)C4(C)C)cc3)cc2)C(C)(C)C)cc1 [Example 128, (2S,4R)-1-[(2S)-2-[2-(3-{[4-(4-{3-[4-cyano-3-(trifluoromethyl)phenyl]-5,5-dimethyl-4-oxo-2-sulfanylideneimidazolidin-1-yl}phenyl)phen-yl]methoxy}propoxy)acetamido]-3,3-dimethylbutanoyl]-4-hydroxy-N-{[4-(4-methyl-1,3-thiazol-5-yl)phenyl]methyl}pyrrolidine-2-carboxamide]
Dmax: 51 to 70% | DC50: < 0.05 µM

Cc1ncsc1-c1ccc(CNC(=O)[C@@H]2C[C@@H](O)CN2C(=O)[C@@H](NC(=O)COCCC(O)COc2ccc(-c3ccc(N4C(=S)N(c5ccc(C#N)c(C(F)(F)F)c5)C(=O)C4(C)C)cc3)cc2)C(C)(C)C)cc1 (stereo partly drawn) [Example 129, (2S,4R)-1-[(2S)-2-(2-{4-[4-(4-{3-[4-cyano-3-(trifluoromethyl)phenyl]-5,5-dimethyl-4-oxo-2-sulfanylideneimidazolidin-1-yl}phenyl)phenoxy]-3-hydroxybutoxy}acetamido)-3,3-dimethylbutanoyl]-4-hydroxy-N-{[4-(4-methyl-1,3-thiazol-5-yl)phenyl]methyl}pyrrolidine-2-carboxamide]
Dmax: 51 to 70% | DC50: < 0.05 µM

Cc1ncsc1-c1ccc(CNC(=O)[C@@H]2C[C@@H](O)CN2C(=O)[C@@H](NC(=O)COC[C@H](O)CCOc2ccc(-c3ccc(N4C(=S)N(c5ccc(C#N)c(C(F)(F)F)c5)C(=O)C4(C)C)cc3)cc2)C(C)(C)C)cc1 [Example 130, (2S,4R)-1-[(2S)-2-{2-[(2R)-4-[4-(4-{3-[4-cyano-3-(trifluoromethyl)phenyl]-5,5-dimethyl-4-oxo-2-sulfanylideneimidazolidin-1-yl}phenyl)phenoxy]-2-hydroxybutoxy]acetamido}-3,3-dimethylbutanoyl]-4-hydroxy-N-{[4-(4-methyl-1,3-thiazol-5-yl)phenyl]methyl}pyrrolidine-2-carboxamide]
Dmax: 51 to 70% | DC50: < 0.05 µM

C[C@H](NC(=O)[C@@H]1C[C@@H](O)CN1C(=O)[C@@H](NC(=O)COCCCCOc1ccc(-c2ccc(N3C(=S)N(c4ccc(C#N)c(Cl)c4)C(=O)C3(C)C)cc2)cc1)C(C)(C)C)c1ccc(-c2cnco2)cc1 [Example 132, (2S,4R)-1-[(2S)-2-{2-[4-(4-{4-[3-(3-chloro-4-cyanophenyl)-5,5-dimethyl-4-oxo-2-sulfanylideneimidazolidin-1-yl]phenyl}phenoxy)butoxy]acetamido}-3,3-dimethylbutanoyl]-4-hydroxy-N-[(1S)-1-[4-(1,3-oxazol-5-yl)phenyl]ethyl]pyrrolidine-2-carboxamide]
Dmax: > 71% | DC50: < 0.05 µM

CC(C)(C)[C@H](NC(=O)COCCCCOc1ccc(-c2ccc(N3C(=S)N(c4cc(Cl)c(C#N)cc4F)C(=O)C3(C)C)cc2)cc1)C(=O)N1C[C@H](O)C[C@H]1C(=O)NCc1ccc(-c2cnco2)cc1 [Example 133, (2S,4R)-1-[(2S)-2-{2-[4-(4-{4-[3-(5-chloro-4-cyano-2-fluorophenyl)-5,5-dimethyl-4-oxo-2-sulfanylideneimidazolidin-1-yl]phenyl}phenoxy)butoxy]acetamido}-3,3-dimethylbutanoyl]-4-hydroxy-N-{[4-(1,3-oxazol-5-yl)phenyl]methyl}pyrrolidine-2-carboxamide]
Dmax: < 25%

Cc1ncoc1-c1ccc(CNC(=O)[C@@H]2C[C@@H](O)CN2C(=O)[C@@H](NC(=O)COCCCC(=O)Nc2ccc(-c3ccc(N4C(=S)N(c5ccc(C#N)c(C(F)(F)F)c5)C(=O)C4(C)C)cc3)cc2)C(C)(C)C)cc1 [Example 135, (2S,4R)-1-[(2S)-2-[2-(3-{[4-(4-{3-[4-cyano-3-(trifluoromethyl)phenyl]-5,5-dimethyl-4-oxo-2-sulfanylideneimidazolidin-1-yl}phenyl)phenyl]carbamoyl}pro-poxy)acetamido]-3,3-dimethylbutanoyl]-4-hydroxy-N-{[4-(4-methyl-1,3-oxazol-5-yl)phenyl]methyl}pyrrolidine-2-carboxamide]
Dmax: 51 to 70% | DC50: < 0.05 µM

Cc1cc(OCCCCOCC(=O)N[C@H](C(=O)N2C[C@H](O)C[C@H]2C(=O)NCc2ccc(-c3scnc3C)cc2)C(C)(C)C)ccc1-c1ccc(N2C(=S)N(c3ccc(C#N)c(C(F)(F)F)c3)C(=O)C2(C)C)cc1 [Example 136, (2S,4R)-1-[(2S)-2-(2-{4-[4-(4-{3-[4-cyano-3-(trifluoromethyl)phenyl]-5,5-dimethyl-4-oxo-2-sulfanylideneimidazolidin-1-yl}phenyl)-3-methylphenoxy]butoxy}acetamido)-3,3-dimethylbutanoyl]-4-hydroxy-N-{[4-(4-methyl-1,3-thiazol-5-yl)phenyl]methyl}pyrrolidine-2-carboxamide]
Dmax: > 71% | DC50: < 0.05 µM

Cc1ncsc1-c1ccc([C@H](C)NC(=O)[C@@H]2C[C@@H](O)CN2C(=O)[C@@H](NC(=O)COCCCCOc2ccc(-c3ccc(N4C(=S)N(c5ccc(C#N)c(C(F)(F)F)c5)C(=O)C4(C)C)c(F)c3)cc2)C(C)(C)C)cc1 [Example 137, (2S,4R)-1-[(2S)-2-(2-{4-[4-(4-{3-[4-cyano-3-(trifluoromethyl)phenyl]-5,5-dimethyl-4-oxo-2-sulfanylideneimidazolidin-1-yl}-3-fluorophenyl)phenoxy]butoxy}acetamido)-3,3-dimethylbutanoyl]-4-hydroxy-N-[(1S)-1-[4-(4-methyl-1,3-thiazol-5-yl)phenyl]ethyl]pyrrolidine-2-carboxamide]
Dmax: > 71% | DC50: < 0.05 µM

Cc1ncoc1-c1ccc([C@H](C)NC(=O)[C@@H]2C[C@@H](O)CN2C(=O)[C@@H](NC(=O)COCCCCOc2ccc(-c3ccc(N4C(=S)N(c5ccc(C#N)c(C(F)(F)F)c5)C(=O)C4(C)C)c(F)c3)cc2)C(C)(C)C)cc1 [Example 138, (2S,4R)-1-[(2S)-2-(2-{4-[4-(4-{3-[4-cyano-3-(trifluoromethyl)phenyl]-5,5-dimethyl-4-oxo-2-sulfanylideneimidazolidin-1-yl}-3-fluorophenyl)phen-oxy]butoxy}acetamido)-3,3-dimethylbutanoyl]-4-hydroxy-N-[(1S)-1-[4-(4-methyl-1,3-oxazol-5-yl)phenyl]ethyl]pyrrolidine-2-carboxamide]
Dmax: > 71% | DC50: < 0.05 µM

COc1cc(-c2ccc(N3C(=S)N(c4ccc(C#N)c(C(F)(F)F)c4)C(=O)C3(C)C)cc2)ccc1OCCCCOCC(=O)N[C@H](C(=O)N1C[C@H](O)C[C@H]1C(=O)NCc1ccc(-c2scnc2C)cc1)C(C)(C)C [Example 139, (2S,4R)-1-[(2S)-2-(2-{4-[4-(4-{3-[4-cyano-3-(trifluoromethyl)phenyl]-5,5-dimethyl-4-oxo-2-sulfanylideneimidazolidin-1-yl}phenyl)-2-methoxyphenoxy]butoxy}acetamido)-3,3-dimethylbutanoyl]-4-hydroxy-N-{[4-(4-methyl-1,3-thiazol-5-yl)phenyl]methyl}pyrrolidine-2-carboxamide]
Dmax: > 71% | DC50: < 0.05 µM

Source: US11427548B2 (Arvinas Operations, Inc., priority 2015, dated 2022)
